This test relates to D-Galactosamine-induced hepatitis in rats. Kind of test: Effect of compound on D-Galactosamine-induced hepatitis in rats (serum GOT and GPT). It counts as in vivo. The note with it: orally 3 hour before and after D-Galactosamine, blood 24 hours later, male Wistar rats. Here is the method:
Method : Effect of compound on D-Galactosamine-induced hepatitis in rats
Acute hepatitis was induced in male Wistar rats at 6 weeks of age by the intraperitoneal injection of 80 mg/ml D-Galactosamine in saline at the volume of 5 ml/kg. Blood samples were taken in rats under ether anaesthesia 24 hours later.
After centrifugation for the separation of sera, the levels of GOT and GPT were determined spectrophotometrically according to Biochemical Analyzer TBA-20R (Toshiba).
Compound was dissolved in polyethylene glycol 400, and administered orally 3 hour before and after the injection of D-Galactosamine.
The levels of serum GOT and GPT in group of animals were measured as described above, and the mean value of each group calculated, including normal rats without D-Galactosamine injection.
The effect of compound was expressed as the percentage Inhibition at serum GOT and GPT, taking activity of control serum as 0% Inhibtion and that of normal serum as 100% Inhibition.

The structures appear in SMILES notation.

Regarding `CCNC(=O)N(O)CC1=Cc2cccc(Oc3ccccc3)c2CC1` [Test Compound (f), N-[(3,4-Dihydro-5-phenoxy-2-naphthyl)methyl]-N-hydroxy-N'-ethylurea], the “Inhibition (%) serum GOT” value is reported as 38% (dose 1 mg/kg), 40% (dose 10 mg/kg) and 67% (dose 32 mg/kg). Besides, the “Inhibition (%) serum GPT” value (dose 1 mg/kg) stood at 42%, the “Inhibition (%) serum GPT” value (dose 10 mg/kg) is 37% and the “Inhibition (%) serum GPT” value (dose 32 mg/kg) amounted to 64%.

Source of the values: patent EP0408760B1, “NEW HYDROXYLAMINE DERIVATIVE” (FUJISAWA PHARMACEUTICAL CO., LTD., priority 1988, dated 1990).
